Measurements as given in PubChem BioAssay (NCI).
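Interpolation was linear, between the two tested concentrations surrounding the appropriate level; five concentrations were tested over 48 hours in 96-well plates. At the GI50, growth is halved. The concentration for full growth arrest is given as TGI.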

Tests used:
Test in all cases: NCI anticancer screen, dose series, 48 h
ACHN renal = tested on: ACHN renal
SF-295 CNS = tested on: SF-295 CNS
MALME-3M melanoma = tested on: MALME-3M melanoma
PC-3 prostate = tested on: PC-3 prostate
HCC-2998 colon = tested on: HCC-2998 colon
NCI-H522 lung = tested on: NCI-H522 lung
SK-MEL-28 melanoma = tested on: SK-MEL-28 melanoma
HT29 colon = tested on: HT29 colon
IGROV1 ovarian = tested on: IGROV1 ovarian
HL-60(TB) leukemia = tested on: HL-60(TB) leukemia

Compound: COc1cccc(C2CC(=O)Nc3c2c(C)nn3-c2nc3ccccc3[nH]2)c1OC (stereo not given)
- GI50 (ACHN renal): 3.98 µM
- TGI (ACHN renal): > 90.9 µM
- GI50 (SF-295 CNS): 1.37 µM
- TGI (SF-295 CNS): 3.78 µM
- GI50 (MALME-3M melanoma): 7.97 µM
- TGI (MALME-3M melanoma): 39 µM
- GI50 (PC-3 prostate): 4.44 µM
- TGI (PC-3 prostate): 60.5 µM
- GI50 (HCC-2998 colon): 18.1 µM
- TGI (HCC-2998 colon): > 79.8 µM
- GI50 (NCI-H522 lung): 3.7 µM
- TGI (NCI-H522 lung): 17.8 µM
- GI50 (SK-MEL-28 melanoma): 9.71 µM
- TGI (SK-MEL-28 melanoma): > 87 µM
- GI50 (HT29 colon): 4.35 µM
- TGI (HT29 colon): > 47.6 µM
- GI50 (IGROV1 ovarian): 4.33 µM
- TGI (IGROV1 ovarian): 24 µM
- GI50 (HL-60(TB) leukemia): 2.97 µM
- TGI (HL-60(TB) leukemia): 13.8 µM

Compound: CC(C)(Oc1ccc(-c2cccc3ccccc23)cc1)C(=O)O
- TGI (ACHN renal): > 100 µM
- TGI (SF-295 CNS): > 100 µM
- TGI (MALME-3M melanoma): > 100 µM
- TGI (PC-3 prostate): > 100 µM
- TGI (HCC-2998 colon): > 100 µM
- TGI (NCI-H522 lung): > 100 µM
- TGI (SK-MEL-28 melanoma): > 100 µM
- TGI (HT29 colon): > 100 µM
- TGI (IGROV1 ovarian): > 100 µM
- TGI (HL-60(TB) leukemia): 30.1 µM

Compound: CCc1ccc2c(c1)C(=O)c1c-2n(CCCN)c(=O)c2cc(OC)c(OC)cc12
- GI50 (ACHN renal): 1.68 µM
- TGI (ACHN renal): 3.07 µM
- GI50 (SF-295 CNS): 1.59 µM
- TGI (SF-295 CNS): 3.08 µM
- GI50 (MALME-3M melanoma): 0.5 µM
- TGI (MALME-3M melanoma): 2.1 µM
- GI50 (PC-3 prostate): 1.54 µM
- TGI (PC-3 prostate): 2.92 µM
- GI50 (HCC-2998 colon): 1.63 µM
- TGI (HCC-2998 colon): 3.05 µM
- GI50 (NCI-H522 lung): 1.59 µM
- TGI (NCI-H522 lung): 3.38 µM
- GI50 (SK-MEL-28 melanoma): 1.77 µM
- TGI (SK-MEL-28 melanoma): 3.19 µM
- GI50 (HT29 colon): 1.56 µM
- TGI (HT29 colon): 2.98 µM
- GI50 (IGROV1 ovarian): 1.76 µM
- TGI (IGROV1 ovarian): 3.36 µM
- GI50 (HL-60(TB) leukemia): 1.37 µM
- TGI (HL-60(TB) leukemia): 3.47 µM

Compound: COc1ccc2nc3ccccc3c(NCCNCCO)c2c1
- GI50 (ACHN renal): 0.478 µM
- TGI (ACHN renal): 21.1 µM
- GI50 (SF-295 CNS): 0.484 µM
- TGI (SF-295 CNS): 2.62 µM
- GI50 (MALME-3M melanoma): 0.382 µM
- TGI (MALME-3M melanoma): 1.88 µM
- GI50 (PC-3 prostate): 0.554 µM
- TGI (PC-3 prostate): 3.79 µM
- GI50 (HCC-2998 colon): 0.898 µM
- TGI (HCC-2998 colon): 2.5 µM
- GI50 (NCI-H522 lung): 0.38 µM
- TGI (NCI-H522 lung): 1.97 µM
- GI50 (SK-MEL-28 melanoma): 1.19 µM
- TGI (SK-MEL-28 melanoma): 3.08 µM
- GI50 (HT29 colon): 0.378 µM
- TGI (HT29 colon): 4.33 µM
- GI50 (IGROV1 ovarian): 0.54 µM
- TGI (IGROV1 ovarian): 3.06 µM
- GI50 (HL-60(TB) leukemia): 0.572 µM
- TGI (HL-60(TB) leukemia): 1.68 µM

Compound: [O]=[Sn]([CH]1CCCCC1)[CH]1CCCCC1
- GI50 (ACHN renal): 0.309 µM
- TGI (ACHN renal): 1.12 µM
- GI50 (SF-295 CNS): 0.319 µM
- TGI (SF-295 CNS): 1.35 µM
- GI50 (MALME-3M melanoma): 0.173 µM
- TGI (MALME-3M melanoma): 0.555 µM
- GI50 (PC-3 prostate): 0.517 µM
- TGI (PC-3 prostate): 1.94 µM
- GI50 (HCC-2998 colon): 0.245 µM
- TGI (HCC-2998 colon): 0.693 µM
- GI50 (NCI-H522 lung): 0.0711 µM
- TGI (NCI-H522 lung): 0.217 µM
- GI50 (SK-MEL-28 melanoma): 0.279 µM
- TGI (SK-MEL-28 melanoma): 1.14 µM
- GI50 (HT29 colon): 0.298 µM
- TGI (HT29 colon): 0.866 µM
- GI50 (IGROV1 ovarian): 0.274 µM
- TGI (IGROV1 ovarian): 0.915 µM
- GI50 (HL-60(TB) leukemia): 0.248 µM
- TGI (HL-60(TB) leukemia): 1.55 µM

Compound: O=C1CCC(c2ccccc2)=NN1c1nc2ccccc2s1
- TGI (ACHN renal): > 100 µM
- TGI (SF-295 CNS): > 85.2 µM
- TGI (MALME-3M melanoma): 95.6 µM
- TGI (PC-3 prostate): 69.2 µM
- TGI (HCC-2998 colon): > 61 µM
- TGI (NCI-H522 lung): 59 µM
- TGI (SK-MEL-28 melanoma): > 100 µM
- TGI (HT29 colon): > 100 µM
- TGI (IGROV1 ovarian): > 100 µM
- TGI (HL-60(TB) leukemia): 99.2 µM

Compound: O=C(Nc1ccn(C2CC(O)C(COC(c3ccccc3)(c3ccccc3)c3ccccc3)O2)c(=O)n1)c1ccccc1 (stereo not given)
- TGI (ACHN renal): 9.31 µM
- TGI (SF-295 CNS): 3.55 µM
- TGI (MALME-3M melanoma): 5.89 µM
- TGI (PC-3 prostate): 5.35 µM
- TGI (HCC-2998 colon): 21.6 µM
- TGI (NCI-H522 lung): 13.4 µM
- TGI (SK-MEL-28 melanoma): 12.1 µM
- TGI (HT29 colon): 3.22 µM
- TGI (IGROV1 ovarian): 6.12 µM
- TGI (HL-60(TB) leukemia): 5.52 µM
